What was measured:
[1] = system: L6 myotubes; assay: Glucose uptake (2-deoxy-D-[3H]glucose) screening assay in cultured L6 myotubes; type: cell-based, rat; conditions: for Glucose Uptake (fold activity to control), Insulin (−) / Glucose Uptake (fold activity to control), Insulin (+): synthetic peptides 1 pg/mL (each), mean ± SEM
[2] = system: L6 myotubes; assay: as above; type: cell-based, rat; conditions: for Concentration at which inhibition of glucose uptake was exhibited / Concentration at which stimulation of glucose uptake was exhibited: L6 myotubes; for Bioactivity: Table 4, identified peptides; for Glucose Uptake (fold activity to control), Insulin (−) / Glucose Uptake (fold activity to control), Insulin (+): synthetic peptides 1 ng/mL (each), mean ± SEM
Description: Screening assays were performed as follows. L6 rat myoblasts (courtesy of Dr. Amira Klip, Hospital for Sick Children, Toronto, Canada) were grown and maintained in monolayer culture in alpha-MEM containing 2% (v/v) fetal bovine serum in an atmosphere of 5% CO2 at 37° C. L6 myoblasts were plated in 12-well or 24-well plates at 20,000 cells/mL, replacing the media every two days until complete differentiation into myotubes (7 days post-plating).
Once completely differentiated, myotubes were serum deprived (alpha-MEM with 0% FBS) for 3 h and treated or not with SPF (1 ng/ml or 1 μg/mL) for 2 h without (insulin-independent) or with 100 nM insulin (insulin-dependent) during the last 45 min. Cells were rinsed once with glucose-free HEPES-buffered saline solution pH 7.4 (140 mM NaCl, 20 mM HEPES/Na, 5 mM KCl, 2.5 mM MgSO4 and 1 mM CaCl2)), and were subsequently incubated for 8 min with 10 µM 2-deoxy-D-glucose containing 0.3 μCi/mL 2-deoxy-D-[3H]glucose in the same buffer. After incubation in transport medium, cells were rinsed three times with ice-cold saline solution (0.9% NaCl) and stored at −20° C. Cells were disrupted by adding 1 mL of 50 mM NaOH to plates with agitation for 15 min. Cell-incorporated radioactivity was measured using a Perkin Elmer Tricarb liquid scintillation counter. Protein concentrations were determined by the micro bicinchoninic acid method (BCA) using a bovine serum albumin (BSA) standard curve (ThermoScientific, Waltham, Mass, USA), and the results expressed in pM/min/mg protein, calculated using the following equation: […]
where DPM (sample) is the number of disintegrations per minute (DPM) measured for the tested sample, C is the concentration of protein (mg), DPM (2DG) is the number of DPM measure for the solution of radioactive 2-deoxy-D-[3H] glucose for 1 pmol and equal to 72.2025 dpm/pmol, and t is the incubation time with 2-deoxy-D-[3H] glucose, and reported in terms of relative activity to the control sample in the absence of insulin. Statistical analysis was performed in Microsoft Excel using a two-tailed Student's t-test assuming equal variance.

[3] = 1 pg/mL, insulin state not distinguished
[4] = 1 ng/mL, insulin state not distinguished (presence or absence)

Substance | Effect on glucose uptake (in words) ([1]; 1 pg/mL (each peptide), absence of insulin) | Effect on glucose uptake (in words) [1, 3] | Effect on glucose uptake (in words) ([1]; 1 pg/mL, presence of insulin) | Glucose Uptake (fold activity to control), Insulin (−) ([1]; absence of insulin) | Glucose Uptake (fold activity to control), Insulin (+) ([1]; presence of insulin) | Effect on glucose uptake (in words) ([2]; 1 ng/mL (each peptide), absence of insulin) | Effect on glucose uptake (in words) [2, 4] | Effect on glucose uptake (in words) ([2]; 1 ng/mL, presence of insulin) | Concentration at which inhibition of glucose uptake was exhibited [2] [pM] | Concentration at which stimulation of glucose uptake was exhibited [2] [nM] | Bioactivity [2] | Glucose Uptake (fold activity to control), Insulin (−) ([2]; absence of insulin) | Glucose Uptake (fold activity to control), Insulin (+) ([2]; presence of insulin)
Ile-Ala-Tyr (IAY) [chemically synthesized tripeptide, Ile-X-Tyr motif] | inhibited glucose uptake | inhibiting effect | inhibited glucose uptake | 0.86 ± 0.04 fold activity to control | 1.55 ± 0.04 fold activity to control | stimulated glucose uptake | stimulating effect | stimulated glucose uptake | 2.7 | 2.7 | Modulates glucose uptake | 1.13 ± 0.05 fold activity to control | 1.97 ± 0.08 fold activity to control
Ile-Gly-Tyr (IGY) [chemically synthesized tripeptide, Ile-X-Tyr motif] |  | inhibiting effect | inhibited glucose uptake | 0.98 ± 0.06 fold activity to control | 1.49 ± 0.10 fold activity to control |  | stimulating effect | stimulated glucose uptake | 2.8 | 2.8 | Modulates glucose uptake | 1.05 ± 0.06 fold activity to control | 2.02 ± 0.05 fold activity to control
Ile-Ile-Tyr |  |  |  | 0.97 ± 0.04 fold activity to control | 1.61 ± 0.07 fold activity to control |  | did not significantly affect |  |  |  |  | 1.06 ± 0.03 fold activity to control | 1.88 ± 0.11 fold activity to control
Ile-Gly-Ile |  |  |  |  |  |  | No significant effect |  |  |  |  | 1.04 ± 0.04 fold activity to control | 1.75 ± 0.17 fold activity to control
Ile-Ala-Ile |  |  |  |  |  |  | No significant effect |  |  |  |  | 1.04 ± 0.04 fold activity to control | 1.80 ± 0.09 fold activity to control
Ile-Ile-Ile |  |  |  |  |  |  | No significant effect |  |  |  |  | 1.00 ± 0.04 fold activity to control | 2.02 ± 0.27 fold activity to control
